Measured values published in US11446298B2, “Pyrimidine derivatives” (Idorsia Pharmaceuticals Ltd, priority 2017, dated 2022).

Legend:
Format in all cases: cell-based
[1] = biological target: T1, PTGER2 (EP2) (Homo sapiens, UniProt P43116); assay: hEP2 b-Arrestin Assay (PathHunter HEK 293 PTGER2 b-arrestin cells, PGE2 5 μM); conditions: antagonistic activity, beta-arrestin assay, HEK 293 PTGER2 cells, PGE2 5 μM (EC80); read-out: hEP2 b-arr IC50
T1 construct: host or cells: HEK 293 (PathHunter, stably transfected)
T1 sequence (P43116 whole entry): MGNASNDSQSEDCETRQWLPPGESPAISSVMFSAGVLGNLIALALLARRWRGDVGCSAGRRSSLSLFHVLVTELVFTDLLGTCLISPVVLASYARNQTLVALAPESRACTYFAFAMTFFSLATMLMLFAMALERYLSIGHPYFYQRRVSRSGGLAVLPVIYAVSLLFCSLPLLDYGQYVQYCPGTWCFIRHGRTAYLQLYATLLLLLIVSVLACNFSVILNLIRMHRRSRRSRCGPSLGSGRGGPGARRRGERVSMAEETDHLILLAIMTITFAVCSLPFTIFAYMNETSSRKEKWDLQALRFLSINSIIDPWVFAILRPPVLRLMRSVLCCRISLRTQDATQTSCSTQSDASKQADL
Protocol: (§1) The antagonistic activities of the compounds of formula (I) on the EP2 and EP4 receptors are also determined in accordance with the following experimental method.
The assay is using the PathHunter™ HEK 293 PTGER2 and PTGER4 b-arrestin cell lines from DiscoverX. The system is based on the Enzyme Fragment Complementation Technology. Two complementing fragments of the b-galactosidase enzyme are expressed within stably transfected cells. The larger portion of b-gal, termed EA for Enzyme Acceptor, is fused to the C-terminus of b-arrestin 2. The smaller fragment, termed ProLink™ tag, is fused to PTGER2 (EP2) or PTRGER4 (EP4) at the C-terminus. Upon activation, b-arrestin is recruited which forces the interaction of ProLink and EA, allowing complementation of the two fragments of b-gal and the formation of a functional enzyme which is capable of hydrolysing the substrate and generating a chemiluminescent signal.
The HEK 293 PTGER2 b-arrestin cells (DiscoverX 93-021-4C1) are detached from culture dishes with a cell dissociation buffer (Invitrogen, 13151-014), and collected in growing medium (GM: DMEM+Glutamax-I (Invitrogen 32430)/10% FCS, 1% Penicilin/streptomycin). 5000 cells per well of a 384 well plate (white with white bottom Greiner 781080) are seeded in 20 μl per well of GM. Plate is incubated at 37° C., 5% CO2 for 24 hours.
Stock solutions of test compounds are made at a concentration of 10 mM in DMSO, and serially diluted in DMSO to concentrations required for inhibition dose response curves (tested concentration range 10 μM-2 nM or 1 μM-0.2 nM).
PGE2 (Cayman 14010, stock solution: 10 mM in DMSO) is used as agonist at 5 μM final concentration, corresponding to EC80.
Five microliters of diluted compounds are transferred into the assay plate. Plate is pre-incubated 15 minutes at 37° C. Then five microliters of PGE2 (final conc. 5 μM) are transferred into the assay plate. Plate is incubated 120 minutes at 37° C.
PathHunter Glo Detection Kit components are thawed and mix according to manufacturer's instructions: 1 part Galacton Star Substrate with 5 parts Emerald II™ Solution, and 19 parts of PathHunter Cell Assay Buffer, respectively. Twelve μl of reagent are transferred to the assay plate and incubate for 1 hour at room temperature in the dark. Luminescence counts are read on a BMG Fluostar Optima reader according to manufacturer's instructions.
For each compound concentration calculate of the percentage of activity compared to DMSO control value as average ±STDEV. (each concentration is measured in duplicate)
(§2) IC50 values and curves are generated with XLfit software (IDBS) using Dose-Response One Site model 203. When compounds were measured multiple times, mean values are given.

[2] = biological target: T2, EP2 (Homo sapiens, UniProt P43116); assay: hEP2 cAMP Assay (SF295 glioblastoma cells, HTRF cAMP, PGE2 75 nM); conditions: antagonistic activity, PGE2 75 nM (EC80)
T2 construct: SF295 glioblastoma cells express high endogenous EP2 and no EP4; host or cells: SF295 glioblastoma cells
T2 sequence (P43116 whole entry): as above
Protocol: as §1
(§3) Human tumor cell lines expressing endogenously either EP4 or EP2 are used and cAMP accumulation in cells upon PGE2 stimulation is monitored. SF295 glioblastoma cells express high endogenous EP2 and no EP4, whereas BT549 breast cancer cells, express high endogenous EP4 levels and very low EP2 levels.
(§4) As a detection method for cAMP the HTRF (homogeneous time resolved fluorescence) Cisbio kit (HTRF cAMP dynamic 2 kit 20′000 tests Cisbio Cat. #62AM4PEC) was used, which is based on a competitive immunoassay using a Cryptate-labeled anti-cAMP antibody and d2-labeled cAMP. Native cAMP produced by cells or unlabeled cAMP (for the standard curve) compete with exogenously added d2-labeled cAMP (acceptor) for binding to monoclonal anti-cAMP-Eu3+Cryptate (donor). A FRET signal (Fluorescence Resonance Energy Transfer) is obtained only if the labeled anti-cAMP antibody binds the d2 labelled cAMP, thus the specific signal (i.e. energy transfer) is inversely proportional to the concentration of cAMP in the standard or sample.
(§5) The SF295 cells (NCI/No. 0503170) are detached from culture dishes with a cell dissociation buffer (Invitrogen, 13151-014), and collected in growing medium (GM: RPM11640 (Invitrogen 21875)/10% FCS, 1% Penicilin/streptomycin). Cells are counted washed and resuspended in assay buffer (AB; HBSS, 20 mM HEPES, 0.2% BSA; 2 mM IBMX). 4′000 cells in 5 μL of AB are seeded per well of a small volume 384 well plate (black with flat bottom, Greiner 784076).
(§6) Stock solutions of test compounds are made at a concentration of 10 mM in DMSO, and serially diluted in DMSO to concentrations required for inhibition dose response curves (tested concentration range 30 μM-0.4 nM; 30 μM-0.015 nM or 1 μM-0.01 nM).
PGE2 (Cayman 14010, stock solution: 75 μM in DMSO) is used as agonist at 75 nM final concentration, corresponding to EC80.
(§7) 2.5 μL of diluted compounds are transferred into the assay plate. Plate is pre-incubated 45 minutes at room temperature. Subsequently, 2.5 μL of PGE2 (final conc. 75 nM) are transferred into the assay plate. Plate is incubated 30 minutes at room temperature. Five μL of each donor (anti-cAMP cryptate) and acceptor (cAMP-d2) are added and the plate is incubated another hour at room temperature in the dark and then read using a BMG LABTECH PHERAstar reader (Excitation: 337 nm, Emission: 620 and 665 nm).
(§8) The obtained Delta F (fluorescence) values (665 nm/620 nM) are converted into % cAMP values using the measurements of the cAMP calibrator provided in the kit. For each compound concentration the percentage of cAMP compared to DMSO control value as average ±STDEV (each concentration is measured in duplicate) is calculated.
as §2

[3] = biological target: T3, EP4 (Homo sapiens, UniProt P35408); assay: hEP4 cAMP Assay (BT549 breast cancer cells, HTRF cAMP, PGE2 6 nM); conditions: antagonistic activity, PGE2 6 nM (EC80)
T3 construct: BT549 breast cancer cells, express high endogenous EP4 levels and very low EP2 levels; host or cells: BT549 breast cancer cells
T3 sequence (P35408 whole entry): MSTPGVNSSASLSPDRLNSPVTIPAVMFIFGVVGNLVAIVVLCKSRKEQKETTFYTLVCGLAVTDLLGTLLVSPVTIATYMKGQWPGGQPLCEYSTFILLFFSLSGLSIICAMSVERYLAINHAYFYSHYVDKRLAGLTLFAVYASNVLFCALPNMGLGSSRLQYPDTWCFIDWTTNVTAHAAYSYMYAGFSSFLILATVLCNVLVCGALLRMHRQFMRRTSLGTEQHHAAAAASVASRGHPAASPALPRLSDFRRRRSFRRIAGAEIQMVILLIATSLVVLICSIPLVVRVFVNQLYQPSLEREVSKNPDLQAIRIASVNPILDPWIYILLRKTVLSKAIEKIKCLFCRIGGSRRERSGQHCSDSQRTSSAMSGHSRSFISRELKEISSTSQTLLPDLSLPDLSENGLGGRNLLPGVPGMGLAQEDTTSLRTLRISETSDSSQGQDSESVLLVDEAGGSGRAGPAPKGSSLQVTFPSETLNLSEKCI
Protocol: as §1, §3, §4
as §5, with “BT549” for “SF295”, “0507282)” for “0503170)”, “RPMI1640” for “RPM11640”
as §6
PGE2 (Cayman 14010, stock solution: 6 uM in DMSO) is used as agonist at 6 nM final concentration, corresponding to EC80.
as §7, with “6” for “75”, “5” for “Five”
as §8, §2

| SMILES | IC50 [1] | IC50 [2] | IC50 [3] |
| --- | --- | --- | --- |
| CCOc1cc(-c2cc(NCCc3cccc4cc(C)n(C)c34)ncn2)sc1C(=O)O [Example 56, 5-{6-[2-(1,2-Dimethyl-1H-indol-7-yl)-ethylamino]-pyrimidin-4-yl}-3-ethoxy-thiophene-2-carboxylic acid] | 53 nM | 52 nM | 292 nM |
| O=C(O)c1ccc(-c2cc(NCCc3ccc(Cl)c4ccccc34)ncn2)cc1OC1CCC1 [Example 61, 4-{6-[2-(4-Chloro-naphthalen-1-yl)-ethylamino]-pyrimidin-4-yl}-2-cyclobutoxy-benzoic acid] | 113 nM | 183 nM | 745 nM |
| CCOc1cc(-c2cc(NCCc3ccc(Cl)c4ccccc34)ncn2)ccc1OCC(=O)O [Example 63, (4-{6-[2-(4-Chloro-naphthalen-1-yl)-ethylamino]-pyrimidin-4-yl}-2-ethoxy-phenoxy)-acetic acid] | 99 nM | 239 nM | 300 nM |
| COc1ccc2ncccc2c1CCNc1cc(-c2ccc(C(=O)O)c(OC3CCC3)c2)ncn1 [Example 64, 2-Cyclobutoxy-4-{6-[2-(6-methoxy-quinolin-5-yl)-ethylamino]-pyrimidin-4-yl}-benzoic acid] | 106 nM | 80 nM | 872 nM |
| CCOc1cc(-c2cc(NCCc3c(OC)ccc4ncccc34)ncn2)ccc1OCC(=O)O [Example 66, (2-Ethoxy-4-{6-[2-(6-methoxy-quinolin-5-yl)-ethylamino]-pyrimidin-4-yl}-phenoxy)-acetic acid] | 350 nM | 227 nM | 714 nM |
| CCOc1cc(-c2cc(NCCc3c(C(F)F)ccc4ccccc34)ncn2)sc1C(=O)O [Example 70, 5-{6-[2-(2-Difluoromethyl-naphthalen-1-yl)-ethylamino]-pyrimidin-4-yl}-3-ethoxy-thiophene-2-carboxylic acid] | 78 nM | 163 nM | 368 nM |
| COc1ccc2ncccc2c1CCNc1cc(-c2ccc(-c3cc(O)no3)cc2)ncn1 [Example 83, 5-(4-{6-[2-(6-Methoxy-quinolin-5-yl)-ethylamino]-pyrimidin-4-yl}-phenyl)-isoxazol-3-ol] | 119 nM | 89 nM | 428 nM |
| Cc1ccc2cnccc2c1CCNc1cc(-c2ccc(C(=O)O)c(OC3CCC3)c2)ncn1 [Example 84, 2-Cyclobutoxy-4-{6-[2-(6-methyl-isoquinolin-5-yl)-ethylamino]-pyrimidin-4-yl}-benzoic acid] | 149 nM | 179 nM | 989 nM |
| CCOc1cc(-c2cc(NCCc3c(C)ccc4cnccc34)ncn2)ccc1OCC(=O)O [Example 86, (2-Ethoxy-4-{6-[2-(6-methyl-isoquinolin-5-yl)-ethylamino]-pyrimidin-4-yl}-phenoxy)-acetic acid] | 177 nM | 77 nM | 674 nM |
| COc1ccc2c(C)ccnc2c1CCNc1cc(-c2ccc(C(=O)O)c(OC3CCC3)c2)ncn1 [Example 87, 2-Cyclobutoxy-4-{6-[2-(7-methoxy-4-methyl-quinolin-8-yl)-ethylamino]-pyrimidin-4-(C)yl}-benzoic acid] | 70 nM | 103 nM | 850 nM |
| CCOc1cc(-c2cc(NCCc3c(OC)ccc4ncccc34)ncn2)ccc1NCC(=O)O [Example 88, (2-Ethoxy-4-{6-[2-(6-methoxy-quinolin-5-yl)-ethylamino]-pyrimidin-4-yl}-phenylamino)-acetic acid] | 94 nM | 155 nM | 645 nM |
| COc1cc(-c2cc(NCCc3c(OC)ccc4ncccc34)ncn2)sc1C1(O)COC1 [Example 89, 3-(3-Methoxy-5-{6-[2-(6-methoxy-quinolin-5-yl)-ethylamino]-pyrimidin-4-yl}-thiophen-2-yl)-oxetan-3-ol] | 178 nM | 197 nM | 878 nM |
| CCOc1cc(-c2cc(NCCc3c(OC)ccc4ncccc34)ncn2)ccc1O [Example 90, 2-Ethoxy-4-{6-[2-(6-methoxy-quinolin-5-yl)-ethylamino]-pyrimidin-4-yl}-phenol] | 36 nM | 58 nM | 351 nM |
| COc1ccc2ncccc2c1CCNc1cc(-c2ccc(-c3c(O)c(=O)c3=O)cc2)ncn1 [Example 91, 3-Hydroxy-4-(4-{6-[2-(6-methoxy-quinolin-5-yl)-ethylamino]-pyrimidin-4-yl}-phenyl)-cyclobut-3-ene-1,2-dione] | 146 nM | 228 nM | 818 nM |
| CCOc1cc(-c2cc(NCCc3c(F)ccc4ccccc34)ncn2)ccc1C(=O)O [Example 93, 2-Ethoxy-4-{6-[2-(2-fluoro-naphthalen-1-yl)-ethylamino]-pyrimidin-4-yl}-benzoic acid] | 36 nM | 36 nM | 427 nM |
| O=C(O)c1ccc(-c2cc(NCCc3c(F)ccc4ccccc34)ncn2)cc1OC1CCC1 [Example 94, 2-Cyclobutoxy-4-{6-[2-(2-fluoro-naphthalen-1-yl)-ethylamino]-pyrimidin-4-yl}-benzoic acid] | 34 nM | 53 nM | 368 nM |
